# According to the supplement of paper PMC13380429:
# Legend:
# Conditions in all cases: 72 h
# [1] = test system: Caco-2; assay: cell viability relative to DMSO; higher = less toxic
# [2] = test system: Calu-3; assay: as above
# [3] = test system: HepG2; assay: as above
# [4] = test system: U2OS; assay: as above
# [5] = test system: Vero E6; assay: as above
# [6] = test system: Caco-2; assay: relative viability EC50 (midpoint between 100% and the lowest measured viability); higher = less toxic
# [7] = test system: Calu-3; assay: as above
# [8] = test system: HepG2; assay: as above
# [9] = test system: U2OS; assay: as above
# [10] = test system: Vero E6; assay: as above
# [11] = test system: Caco-2; assay: drug sensitivity score (DSS) for viability; higher = more toxic; extreme values may be limits of the assay
# [12] = test system: Calu-3; assay: as above
# [13] = test system: HepG2; assay: as above
# [14] = test system: U2OS; assay: as above
# [15] = test system: Vero E6; assay: as above
Structure (SMILES),cell viability ([1]; 1 nM) [%],cell viability ([1]; 10 nM) [%],cell viability ([1]; 100 nM) [%],cell viability ([1]; 1000 nM) [%],cell viability ([1]; 10000 nM) [%],cell viability ([2]; 1 nM) [%],cell viability ([2]; 10 nM) [%],cell viability ([2]; 100 nM) [%],cell viability ([2]; 1000 nM) [%],cell viability ([2]; 10000 nM) [%],cell viability ([3]; 1 nM) [%],cell viability ([3]; 10 nM) [%],cell viability ([3]; 100 nM) [%],cell viability ([3]; 1000 nM) [%],cell viability ([3]; 10000 nM) [%],cell viability ([4]; 1 nM) [%],cell viability ([4]; 10 nM) [%],cell viability ([4]; 100 nM) [%],cell viability ([4]; 1000 nM) [%],cell viability ([4]; 10000 nM) [%],cell viability ([5]; 1 nM) [%],cell viability ([5]; 10 nM) [%],cell viability ([5]; 100 nM) [%],cell viability ([5]; 1000 nM) [%],cell viability ([5]; 10000 nM) [%],relative viability EC50 [6] [µM],relative viability EC50 [7] [µM],relative viability EC50 [8] [µM],relative viability EC50 [9] [µM],relative viability EC50 [10] [µM],drug sensitivity score [11],drug sensitivity score [12],drug sensitivity score [13],drug sensitivity score [14],drug sensitivity score [15]
O=C1CCC[C@@H]2[C@H]3CCCN4CCC[C@@H](CN12)[C@@H]34 [matrine],97.6,94,94.9,91.4,90.4,97,93.5,100,98.5,100,89.9,108,85.8,111,103,96.1,96.4,96.4,93.7,99.1,96.8,98.7,93.3,99.1,104,> 10,> 10,> 10,> 10,> 10,0,0,0,0,0
CC(C)(C)NC[C@H](O)c1ccc(O)cc1Cl [meluadrine],97.9,97.6,93.9,97.6,90.7,92.8,104,98.3,104,104,105,106,103,95,105,99.3,101,96.4,100,96.4,109,102,102,99.9,104,> 10,> 10,> 10,> 10,> 10,0,0,0,0,0
COP(=O)(OC)OC(c1ccc(Cl)cc1)P(=O)(OC)OC (stereo not given) [mifobate],106,94.5,98,107,105,93.6,94.1,85.1,96.7,96.3,107,98.5,92.8,99.8,93.7,101,97.5,101,94.4,98.3,101,94.5,98,92.5,100,> 10,> 10,> 10,> 10,> 10,0,0,0,0,0
